In patent US7041785B1, “B1-bradykinin receptor antagonists and use thereof” (Université de Sherbrooke, priority 1996, dated 2006):
Non-standard residues stand in square brackets, D forms with d. Residues, ends and D or L forms follow the SMILES beside them. d2Nal = N[C@H](Cc1ccc2ccccc2c1)C(=O)O; dTic = O=C(O)[C@H]1Cc2ccccc2CN1; NMeA = CN[C@@H](C)C(=O)O

How the values were obtained:
B1 receptor = molecular target: T1, B1 receptor (Oryctolagus cuniculus, UniProt P48748); experiment: cell-based; conditions: for Kb: Rb.A. pA2, apparent affinity as antagonist vs desArg9BK; for Rb.A. α^E: residual agonistic activity at 10 μg/mL in comparison with desArg9BK
T1 sequence (P48748 1-352): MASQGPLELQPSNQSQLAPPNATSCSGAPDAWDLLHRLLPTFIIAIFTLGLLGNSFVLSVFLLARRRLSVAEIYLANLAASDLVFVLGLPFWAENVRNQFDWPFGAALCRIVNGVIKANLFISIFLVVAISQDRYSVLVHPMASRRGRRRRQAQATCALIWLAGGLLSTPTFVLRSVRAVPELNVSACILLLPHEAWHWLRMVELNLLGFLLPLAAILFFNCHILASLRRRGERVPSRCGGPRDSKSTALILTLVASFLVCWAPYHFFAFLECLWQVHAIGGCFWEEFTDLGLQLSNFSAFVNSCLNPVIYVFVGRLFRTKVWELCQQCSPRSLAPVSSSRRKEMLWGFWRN
Source text: (§1) Tissues were taken from New Zealand white rabbits (1.5–2.5 kg) and Dunken Hartley guinea pigs (250–350 g) of either sex, killed by stunning and exsanguination. Umbilical cords were taken from healthy women 22–40 years old after spontaneous delivery at term. The rabbit jugular vein (RbJV), the guinea pig ileum (GPI), two preparations containing B2 receptors, the rabbit aorta (RbA) (B1 receptor) and the human umbilical vein (HUV), a mixed preparation containing both B1 and B2 receptors^10, were used. Helical strips of RbJV treated with 1 μmol/L of captopril to avoid peptide degradation by the angiotensin-converting enzyme (ACE), alias kininase II were prepared according to Gaudreau et al.^11 Helical strips of RbA devoid of endothelium were prepared according to Furchgott and Bhadrakom^12. Longitudinal segments of GPI were prepared with the procedure described by Rang^13. Helical strips of HUV were prepared according to Gobeil et al.^10. The tissues were suspended in 10-ml organ baths containing warm (37EC), oxygenated (95% O2–5% CO2) Krebs solution of the following composition in mmol/L; NaCl: 118.1; KCl: 4.7; CaCl26H2O: 2.5; KH2PO4: 1.2; MgSO47H2O: 1.18; NaHCO3: 25.0 and D-Glucose: 5.5. The RbA and the HUV were stretched with an initial tension of 2 g, whereas the RbJV and the GPI were loaded with 0.5 g. Changes of tension produced by the various agents were measured with Grass isometric transducers (model FT 03C, Grass Instrument Co., Quincy, Mass.). […] Before testing the drugs, the tissues were allowed to equilibrate for 60–120 min during which time the tissues were repeatedly washed and the tension readjusted every 15 min.
(§2) At the beginning of each experiment, a submaximal dose of bradykinin (BK) (9 nmol/L), was applied repeatedly on the RbJV, the GPI or the HUV to ensure that tissues responded with stable contractions. […] A similar protocol was used for the HUV.
(§3) Repeated applications of a singl and double concentration of BK (on RbJV, GPI and HUV) and of desArg^9BK (RbA and HUV) were made in the absence and in presence of the various peptides to evaluate their apparent affinities as antagonists, in terms of pA2 (-log10 of the molar concentration of antagonist that reduces the effect of a double concentration of agonist to that of a single one)^14. The antagonists were applied 10 min before measuring the myotropic effects of either BK (the B2 receptor agonist) or desArg^9BK (the B1 receptor agonist). […] All kinin antagonists were initially applied to tissues at concentration of 10 μg/mL to measure their potential agonistic activities (α^E) in comparison with BK (in the B2 receptor preparations) or desArg^9BK (in the B1 receptor preparations).

B2 receptor [1] = molecular target: T2, B2 receptor (Cavia porcellus, UniProt O70526); experiment: cell-based; conditions: for G.P.I. pA2: vs BK, Inactive = no detectable antagonistic effect at ≦ 10 μg/ml, F.ag. full agonist, P.ag. partial agonist; for G.P.I. α^E: residual agonistic activity at 10 μg/mL in comparison with BK
T2 sequence (O70526 1-372): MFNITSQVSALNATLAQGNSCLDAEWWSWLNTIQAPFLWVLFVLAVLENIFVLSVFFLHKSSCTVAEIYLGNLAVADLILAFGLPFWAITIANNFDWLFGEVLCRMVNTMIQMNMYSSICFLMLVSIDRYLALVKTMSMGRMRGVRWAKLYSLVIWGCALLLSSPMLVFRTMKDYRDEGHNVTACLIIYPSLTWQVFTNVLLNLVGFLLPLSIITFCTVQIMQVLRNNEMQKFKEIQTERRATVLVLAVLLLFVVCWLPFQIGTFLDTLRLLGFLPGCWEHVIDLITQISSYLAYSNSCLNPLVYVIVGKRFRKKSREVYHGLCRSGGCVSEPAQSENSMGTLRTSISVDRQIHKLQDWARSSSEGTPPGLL
Source text: as §1, §2, §3

[2] = system: T3, angiotensin-converting enzyme (ACE); experiment: Metabolic degradation by purified angiotensin-converting enzyme, HPLC analysis; format: in vitro ADME, rabbit; conditions: rabbit, isolated enzyme ace, pH 7.5
T3 construct: purified angiotensin-converting enzyme (ACE) from rabbit lungs; purchased Sigma, St-Louis, Mo; host or cells: purified from rabbit lungs
Description: The metabolic stability of various kinin-related peptides was evaluated by incubating the peptide in the presence of purified angiotensin-converting enzyme (ACE) from rabbit lungs (purchased from Sigma, St-Louis, Mo.) dissolved in phosphate buffered saline (PBS) (50 mmol/L, pH 7.5 containing 300 mmoL/L NaCl); the final concentration of enzyme was 45 μg/mL. The experimental protocol for the measurement of ACE activity has been described elsewhere^15,16. Briefly, 200 μmol/L of peptides (40 μL) were placed in a PBS buffer and incubated for 5 min at 37EC before adding 8.5 μL of ACE (total volume of the reaction medium; 190 μL). Samples were withdrawn at 30 min intervals, immersed in boiling water for 5 min, then cooled on ice and centrifuged (5 min) before proceeding to analysis of peptides by high pressure liquid chromatography (HPLC). Results of ACE metabolism are expressed in percent of kinin degradation following the incubation (30 min) of kinin substrates with the enzyme.
Pure peptides and metabolic products were analysed by reverse-phas HPLC on a C18 μBondapak column (4.6 mm×25 cm) (Waters) of 10-μm particle size. The peptides and their fragments were eluted at the rate of 2.0 mL/min. with a linear gradient ranging from 5 to 65% of acetonitrile/TFA 0.05%/water over 20 min. at room temperature. The elution positions of these peptides were determined by following the absorbance at 214 nm. For each assay, 50 μL of the reaction medium (treated or not with ACE) were extracted and injected into the column. Concentrations of the peaks products, different from the peaks of the peptide substrate, were estimated using a computer software program (Baseline 810; Waters) that controlled also all the chromatography operations. Isolated metabolites and substrates were collected and identified by Electrospray mass spectrometry (positive mode).

B2 receptor [3] = molecular target: T4, B2 receptor (Oryctolagus cuniculus, UniProt Q28642); conditions: vs BK; captopril 1 μmol/L; Inactive = no detectable antagonistic effect at ≦ 10 μg/ml
T4 sequence (Q28642 1-367): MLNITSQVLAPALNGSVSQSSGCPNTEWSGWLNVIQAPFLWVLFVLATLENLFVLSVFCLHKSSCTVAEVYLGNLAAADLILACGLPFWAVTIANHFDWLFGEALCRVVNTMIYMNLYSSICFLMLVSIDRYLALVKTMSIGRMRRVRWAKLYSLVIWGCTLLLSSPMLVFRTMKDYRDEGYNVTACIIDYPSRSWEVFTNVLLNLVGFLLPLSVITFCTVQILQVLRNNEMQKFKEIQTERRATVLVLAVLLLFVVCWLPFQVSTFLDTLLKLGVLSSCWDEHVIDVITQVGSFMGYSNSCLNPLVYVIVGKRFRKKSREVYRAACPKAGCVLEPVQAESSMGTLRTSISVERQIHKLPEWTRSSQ

B2 receptor [4] = molecular target: T4, B2 receptor; experiment: cell-based; conditions: residual agonistic activity at 10 μg/mL in comparison with BK
Source text: as §1, §2, §3

[5] = antagonist applied 10 min before, Inactive = no detectable antagonistic effect at ≦ 10 μg/ml

Row | Molecule | Kb (B1 receptor; [5]) [nM] | G.P.I. pA2 (B2 receptor [1]) | metabolised at 0.5 h, 42.1 μmol/L [2] [%] | Rb.J.V. pA2 (B2 receptor [3]) | Kb (B2 receptor [1]) [nM] | Rb.A. α^E (B1 receptor) | G.P.I. α^E (B2 receptor [1]) | Rb.J.V. α^E (B2 receptor [4]) | EC50 (B2 receptor [1]) [nM] | metabolised at 0.5 h [2] [%] | Rb.A. pA2 (B1 receptor; apparent affinity as antagonist vs desArg9BK, antagonist applied 10 min before, Inactive = no detectable antagonistic effect at ≦ 10 μg/ml)
1 | CC(C)C[C@H](NC(=O)[C@@H]1CCCN1C(=O)[C@H](CO)NC(=O)[C@H](Cc1ccccc1)NC(=O)CNC(=O)[C@@H]1CCCN1C(=O)[C@@H]1CCCN1C(=O)[C@@H](N)CCCNC(=N)N)C(=O)O [Compound 1, (Leu^8)desArg^9BK, reference compound] | 57.5 | Inactive | 83 ± 2 | Inactive |  |  |  |  |  |  | 
2 | CC(C)C[C@H](NC(=O)[C@@H]1CCCN1C(=O)[C@H](CO)NC(=O)[C@H](Cc1ccccc1)NC(=O)CNC(=O)[C@@H]1C[C@@H](O)CN1C(=O)[C@@H]1CCCN1C(=O)[C@H](CCCNC(=N)N)NC(=O)[C@@H](N)CCCCN)C(=O)O [Compound 3, Lys(Hyp^3, Leu^8)desArg^9BK] | 6.92 | Inactive | 40 ± 3 | Inactive |  |  |  |  |  |  | 
3 | CC(C)C[C@H](NC(=O)[C@@H]1CCCN1C(=O)[C@H](CO)NC(=O)[C@H](Cc1ccccc1)NC(=O)CNC(=O)[C@@H]1C[C@@H](O)CN1C(=O)[C@@H]1CCCN1C(=O)[C@H](CCCNC(=N)N)NC(=O)[C@H](N)CCCNC(=N)N)C(=O)O [Compound 4, D-Arg(Hyp^3, Leu^8)desArg^9BK] | 339 |  | 83 ± 2 | Inactive | > 9550 |  |  |  |  |  | 
4 | CC(=O)N[C@@H](CCCCN)C(=O)N[C@@H](CCCNC(=N)N)C(=O)N1CCC[C@H]1C(=O)N1C[C@H](O)C[C@H]1C(=O)NCC(=O)N[C@@H](Cc1ccccc1)C(=O)N[C@@H](CO)C(=O)N1CCC[C@H]1C(=O)N[C@@H](CC(C)C)C(=O)O [Compound 5, AcLys(Hyp^3, Leu^8)desArg^9BK] | 178 |  | 66 ± 1 | Inactive | > 9550 | 0 | 0.30 | 0.03 |  |  | 
5 | CC(=O)N[C@@H](CCCCN)C(=O)N[C@@H](CCCNC(=N)N)C(=O)N1CCC[C@H]1C(=O)N1CCC[C@H]1C(=O)NCC(=O)N[C@@H](Cc1ccccc1)C(=O)N[C@@H](CO)C(=O)N1Cc2ccccc2C[C@@H]1C(=O)N[C@@H](CC(C)C)C(=O)O [Compound 11, AcLys(D-Tic^7, Leu^8)desArg^9BK] (Ac-KRPPGFS[dTic]L-OH; C-terminus assumed) | 6760 |  |  | Inactive |  | 0 |  | 0.37 | 1410 | 0 | 
6 | CC(=O)N[C@@H](CCCCN)C(=O)N[C@@H](CCCNC(=N)N)C(=O)N1CCC[C@H]1C(=O)N1CCC[C@H]1C(=O)NCC(=O)N[C@@H](Cc1ccccc1)C(=O)N(C)[C@@H](C)C(=O)N1CCC[C@H]1C(=O)N[C@@H](CC(C)C)C(=O)O [Compound 21, AcLys(N-MeAla^6, Leu^8)desArg^9BK, reference compound] (Ac-KRPPGF[NMeA]PL-OH; C-terminus assumed) | 282 | Inactive | 0 | Inactive |  | 0.01 | 0.19 | 0 |  |  | 
7 | CC[C@H](C)[C@H](NC(=O)[C@@H](Cc1ccc2ccccc2c1)NC(=O)[C@H](C)N(C)C(=O)[C@H](Cc1ccccc1)NC(=O)CNC(=O)[C@@H]1CCCN1C(=O)[C@@H]1CCCN1C(=O)[C@H](CCCNC(=N)N)NC(=O)[C@H](CCCCN)NC(C)=O)C(=O)O [Compound 22, AcLys(N-MeAla^6, D-βNal^7, IIe^8)desArg^9BK] (Ac-KRPPGF[NMeA][d2Nal]I-OH; C-terminus assumed) | 537 | P.ag. | 0 | Inactive |  | 0 |  | 0.03 |  |  | 
8 | D-Arg(Hyp^3, D-Hyp^7(trans propyl), Oic^8)desArg^9BK [Compound 33, reference compound] |  |  |  | 6.99 ± 0.04 |  | 0 | 0 | 0 |  |  | 7.94 ± 0.06
